Measured values: patent US11439685B2, “Formulations for treating a fibrotic disease” (TRUSTEES OF BOSTON UNIVERSITY, priority 2020, dated 2022)
“Also recorded” adds a separate entry of the source. Where two headings read alike, the source gives them in different places.

Legend:
[1] = regressed when marimastat was stopped; cited from earlier work
[2] = Circular dichroism spectroscopy of relaxin-2 fold and stability; assay type: physicochemical; conditions: for time relaxin-2 is stable: 37° C., no loss of alpha helical structure
Method: Relaxin-2 loaded PLGA microparticles (RMPs) were prepared based on the water/oil/water (w/o/w) method as described by Igartua, M., et. al., International Journal of Pharmaceutics, 1998, 169(1): 45-54 at 1.27×10-3 wt % loaded relaxin as determined by ELISA analysis. Significant optimization and tailoring of the method was required to obtain the particle. Amounts, time, temperature, mixing speed, polymer LA:GA content were all varied to identify a unique non-obvious set of conditions to prepare the polymer. […] Relaxin-2 in the relaxin-2 microparticles maintained its native secondary and tertiary structure through the w/o/w double-emulsion process. […] Additionally, relaxin-2 was stable at 37° C. over 2 months (FIG. 2, right). The relaxin-2 PLGA microparticles were prepared with batch-to-batch consistency and were resuspended in PEG-600 to reduce aggregation and flocculation, as well as to ease administration through a 23 G needle.
Two amphiphilic hydrogels were synthesized for the physical entrapment of relaxin-2 in order to control its sustained release (FIG. 6). These amphiphilic molecules melted at 95° C. and congealed when slowly cooled back to room temperature strictly from non-covalent interactions. The alkyl chain of 1 and alkyl fluoride chain of 2 allow for hydrophobic interactions between each molecule, while the trizol and thymidine moieties allow for pi-pi stacking. Lastly, the deoxyribose and glucose groups facilitate hydrogen bonding (Godeau, G., et al., Tetrahedron Letters 2010, 51: 1012-1015; Ramen, F. A. et al., Biomaterials. 2017, 145: 72-80). Together, these amphiphilic molecules create unique and stable supramolecular assemblies that are stable at 37° C. for at least two weeks. This stability feature is another novel finding and benefit to the use of the hydrogels. Three gels of each 1 and 2 were created with bovine serum albumin and relaxin-2 at different densities by dissolving each molecule in a solution of phosphate buffered saline with protein and heating to 95° C. for 30 minutes. […]

[3] = test system: collagen I expression in human fibroblast-like synoviocytes (HFLS); assay: Collagen I expression in synoviocytes treated with relaxin-2 microparticles in transwells; assay type: cell-based
Excerpt: Human fibroblast-like synoviocytes (HFLS) treated with relaxin-2 microparticles in transwells allow for evaluation of the release and efficacy of released relaxin-2 at various time points. […] In the presence of relaxin-2, collagen I is expressed at 20 to 30% of the basal level at weeks 1, 3, and 4.

[4] = test system: glenohumeral joint in an animal model of shoulder contracture; assay: Range of motion in rat shoulder contracture model; assay type: in vivo, rats
Method: The study was approved by the Institutional Animal Care and Use Committee, and 10 Sprague-Dawley rats (250-300 g, Charles River Laboratories, Wilmington, Mass., USA) were used in the study. For each animal, torque was measured per degree, on the intact left shoulder as a function of rotation angle between 80° of internal rotation (negative values by convention) and 60° of external rotation (positive values by convention) prior to any surgical intervention (baseline). […] Therefore, torque values at 60° external rotation (τOUT) and 800 of internal rotation (τINT) were recorded for each animal. The left forelimb of each animal was immobilized using extraarticular internal fixation. Under isoflurane anesthesia, a longitudinal skin incision was made perpendicular to the scapular spine. Two No. 2-0 braided polyester sutures (Ethibond Excel, Ethicon—San Lorenzo, PR, USA) were passed between the medial border of the scapula and the humeral shaft and tightened to immobilize the shoulder joint (FIG. 1, panel A). Muscular structures were not manipulated during surgery, and the animals were allowed normal activity in their cages immediately after the procedure. After 8 weeks of immobilization, the restraining sutures were removed, and the 10 animals were divided into two groups to evaluate changes in ROM (ROM group, n=5) and joint stiffness (stiffness group, n=5). In the ROM group, changes in kinematics were longitudinally quantified in the follow-up period by measuring the ROM achieved with the TOUT and TINT measured at baseline. This was conducted to evaluate whether immobilization mediated a significant reduction in ROM. In the stiffness group, joint kinetics were examined by measuring the differences in TOUT and TINT needed to achieve the original 800 of internal rotation and 60° of external rotation, respectively. […] The baseline measurements for each group were used as internal controls to reduce the total number of animals necessary for the study. […] ROM and torque measurements were performed under general anesthesia using a device that consisted of a sensor assembly, a rotating axle, and an arm clamp. The sensor assembly contained an orientation sensor (3DM-GX3-15, MicroStrain—Williston, Vt.), as well as a reaction torque sensor (TFF400, Futek—Irvine, Calif.) secured to the axle such that the sensing axis was collinear with the center of rotation. […] In the ROM group, pre-set programmable torque values, specific for each animal and measured at baseline (TOUT and TINT), were used as input variables in order to detect changes in rotation ROM with 0.2° resolution. […] For each animal, torque was measured per degree, on the intact left shoulder as a function of rotation angle between 1000 of internal rotation and 600 of external rotation prior to any surgical intervention. […]

[5] = test system: shoulder joint in an animal model of shoulder contracture; assay: Histological analysis of the shoulder joint in rat contracture model; assay type: in vivo, rats; conditions: immobilized shoulders, FIG. 12
[6] = test system: heart failure; conditions: 30 micrograms/kg/day for 2 days, intravenous infusion; cited from earlier work
[7] = test system: human fibroblasts; conditions: cited from earlier work
[8] = test system: collagen build-up in the lung induced by bleomycin; conditions: cited from earlier work
[9] = test system: cultured renal fibroblasts, epithelial cells and mesangial cells; conditions: TGF-β-induced; cited from earlier work
[10] = cited from earlier work
[11] = test system: scleroderma; conditions: cited from earlier work

For CNC(=O)[C@@H](NC(=O)[C@H](CC(C)C)[C@H](O)C(=O)NO)C(C)(C)C [marimastat], the “adverse effect in patients” value [1] is listed as “developed shoulder contractures”.

With Relaxin-2 the “time relaxin-2 is stable” value [2] was “up to 2 months”, the “time relaxin-2 is stable” value ([2]; listed as relaxin-2) was 2 months and the “secondary/tertiary structure of relaxin-2 after w/o/w double emulsion process” value ([2]; circular dichroism, freshly prepared vs emulsified) was “no change; also recorded: unaffected by the double emulsion process”. For the same molecule, the “collagen I reduced to (densitometry)” value ([3]; after release of relaxin-2 from microparticles, FIG. 4 legend) was “approximately 50%”, the “collagen I expression compared to untreated control” value ([3]; relaxin-2 released over four weeks, synoviocytes) was “significant downregulation in collagen I expression” and the “internal ROM” value ([4]; intravenous injection at a much greater dose) was “similarly constricted internal ROM compared with the untreated control group”. For the same molecule, the “internal ROM” value ([4]; mIA relaxin-2 5 x 2 ug/kg every other day, or single intraarticular RMP approx. 10 ug/kg, follow-up 8 weeks) was “significant increase back to healthy baseline by week 2”, the “internal ROM” value ([4]; mIA relaxin-2 5 x 2 ug/kg every other day, or single intraarticular RMP approx. 10 ug/kg, follow-up 8 weeks, listed as relaxin-2) was “restoration of internal ROM to baseline measurements” and the “internal ROM” value ([4]; singular articular injection) was “similarly constricted internal ROM compared with the untreated control group”. The “histology: adhesions / hallmarks of arthrofibrosis” value [5] was “lacked any apparent adhesions”, the “trial's primary endpoint of effectiveness” value [6] was “did not meet the trial's primary endpoint of effectiveness” and the “levels of collagen types I and III and fibronectin” value [7] was “reduction”. For the same molecule, the “collagen build-up in the lung and overall fibrosis” value [8] was “decreased collagen build-up”, the “fibronectin levels and degradation” value [9] was “decreased TGF-β-induced fibronectin levels and increased fibronectin degradation” and the efficacy in animals ([10]; bolus dose) was “not be effective”. For the same molecule, the efficacy in animals ([10]; sustained dose) was “effective”, the “trial's primary endpoint of effectiveness” value ([11]; 25 micrograms/kg/day for 24 weeks, subcutaneous delivery) was “did not meet the trial's primary endpoint of effectiveness” and the adverse events ([11]; in vivo, sc) was “declines in creatine clearance and renal adverse events”.
